According to article PMC6426682 (ACS chemical neuroscience, 2018):

Columns and labels:
CB1 receptor [1] = target: T1, CB1 receptor (Mus musculus, UniProt P47746); assay: [3H]CP55,940 equilibrium radioligand binding; conditions: for [3H]CP55,940 Curve-fit top ± S.E.: mouse cerebellar membranes
CB1 receptor [2] = target: T1, CB1 receptor; assay: [3H]SR141716 equilibrium radioligand binding; conditions: for effect on [3H]SR141716 binding (in words): 1 nM [3H]SR141716; for remaining activity at 32 µM: 1.5 h, read-out: %[3H]SR141716 Binding ± S.E.
[3] = target: uncoupled low affinity receptor (CB1); conditions: read-out: Ki for the uncoupled low affinity receptor; cited from earlier work
CB1 receptor [4] = target: T1, CB1 receptor; assay: Agonist-stimulated [35S]GTP-γ-S binding assay in mouse cerebellar membranes; assay type: biochemical
CB1 receptor [5] = target: T1, CB1 receptor; assay: [3H]CP55,940 saturation binding in presence of allosteric modulator; conditions: Bmax of the radioligand at 10 μM of test compound; vehicle 1.56 ± 0.09
human CB1 receptor = human CB1 receptor (Homo sapiens, UniProt P21554); assay: CB1 calcium mobilization assay; assay type: cell-based; conditions: for IC50: CB1 Calcium assay IC50, against EC80 (100 nM) of CP55,940 in stable human CB1-CHO-RD-HGA16 cells, mean ± SEM; for fold reduction in potency compared to 1, CB1 calcium assay: relative to 1
human CB1 receptor, sequence (P21554 whole entry): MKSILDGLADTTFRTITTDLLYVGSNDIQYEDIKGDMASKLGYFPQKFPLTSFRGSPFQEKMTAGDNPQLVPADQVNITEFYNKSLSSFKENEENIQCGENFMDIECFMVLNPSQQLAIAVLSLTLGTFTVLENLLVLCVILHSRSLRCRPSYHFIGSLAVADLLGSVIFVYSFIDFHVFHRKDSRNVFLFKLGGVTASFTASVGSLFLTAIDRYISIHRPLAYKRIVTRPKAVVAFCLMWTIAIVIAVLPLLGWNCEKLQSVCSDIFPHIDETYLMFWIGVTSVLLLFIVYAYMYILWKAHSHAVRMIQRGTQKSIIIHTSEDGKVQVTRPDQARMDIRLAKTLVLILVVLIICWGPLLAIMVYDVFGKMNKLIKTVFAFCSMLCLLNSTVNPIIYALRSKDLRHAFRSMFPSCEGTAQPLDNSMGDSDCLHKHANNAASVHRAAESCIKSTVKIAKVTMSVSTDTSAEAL

[6] = in vivo; cited from earlier work
[7] = cited from earlier work
rats = conditions: cited from earlier work

T1 sequence (P47746 whole entry): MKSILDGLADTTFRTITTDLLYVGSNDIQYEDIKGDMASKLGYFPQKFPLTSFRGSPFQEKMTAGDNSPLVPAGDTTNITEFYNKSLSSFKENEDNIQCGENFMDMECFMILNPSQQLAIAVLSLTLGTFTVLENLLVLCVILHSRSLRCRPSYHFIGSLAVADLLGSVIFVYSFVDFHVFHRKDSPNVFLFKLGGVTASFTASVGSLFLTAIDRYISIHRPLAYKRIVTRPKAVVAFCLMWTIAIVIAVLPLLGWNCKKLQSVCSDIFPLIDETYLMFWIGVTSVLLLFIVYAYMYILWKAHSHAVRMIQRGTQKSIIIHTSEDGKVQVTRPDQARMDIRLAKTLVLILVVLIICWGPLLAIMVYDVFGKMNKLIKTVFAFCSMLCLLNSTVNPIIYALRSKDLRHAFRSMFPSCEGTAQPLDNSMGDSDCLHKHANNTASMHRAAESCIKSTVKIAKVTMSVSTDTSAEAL

SMILES: Cc1ccc(-c2cccc(NC(=O)Nc3ccc(Cl)cc3)c2)s1 [Compound 12, 3‐(4‐Chlorophenyl)‐1‐[3‐(5‐methylthiophen‐2‐yl)phenyl]urea]
- EC50 (CB1 receptor [1]): 13.2 µM
- [3H]CP55,940 Curve-fit top ± S.E. (CB1 receptor [1]; 1 nM [3H]CP55,940): 233.3 ± 20.53
- IC50 (CB1 receptor [2]): 22.9 µM
- effect on [3H]SR141716 binding (in words) (CB1 receptor [2]): only exhibited a slight reduction in [^3H]SR141716 binding
- remaining activity at 32 µM (CB1 receptor [2]): 86.9 ± 5.87%

SMILES: O=C(Nc1ccc(Cl)cc1)Nc1cccc(-c2ccsc2)c1 [Compound 9, 3‐(4‐Chlorophenyl)‐1‐[3‐(thiophen‐3‐yl)phenyl]urea]
- EC50 (CB1 receptor [1]): 4.57 µM
- [3H]CP55,940 Curve-fit top ± S.E. (CB1 receptor [1]; 1 nM [3H]CP55,940): 264.6 ± 9.81
- IC50 (CB1 receptor [2]): 11.2 µM
- remaining activity at 32 µM (CB1 receptor [2]): 20.4 ± 2.13%

SMILES: CCCCCCC(C)(C)c1ccc([C@@H]2C[C@H](O)CC[C@H]2CCCO)c(O)c1 [CP55,940]
- Ki [3]: ~0.1 µM

SMILES: O=C(Nc1ccc(Cl)cc1)Nc1cccc(-c2cscn2)c1 [Compound 16, 3‐(4‐Chlorophenyl)‐1‐[3‐(1,3‐thiazol‐4‐yl)phenyl]urea]
- EC50 (CB1 receptor [1]): 10.7 µM
- [3H]CP55,940 Curve-fit top ± S.E. (CB1 receptor [1]; 1 nM [3H]CP55,940): 224.2 ± 15.85
- IC50 (CB1 receptor [2]): 25.7 µM
- remaining activity at 32 µM (CB1 receptor [2]): 44.3 ± 1.42%

SMILES: Cc1cc(-c2cccc(NC(=O)Nc3ccc(Cl)cc3)c2)cs1 [Compound 11, 3‐(4‐Chlorophenyl)‐1‐[3‐(5‐methylthiophen‐3‐yl)phenyl]urea]
- fold reduction in inhibitory potency on introduction of a methyl group, GTP-γ-S assay (CB1 receptor [4]; relative to the 3-thiophenyl analogue (9)): 5 fold
- EC50 (CB1 receptor [1]): 3.89 µM
- [3H]CP55,940 Curve-fit top ± S.E. (CB1 receptor [1]; 1 nM [3H]CP55,940): 226.0 ± 5.82
- [3H]CP55,940 Bmax ± S.E. (CB1 receptor [5]): 3.64 ± 0.17 pmol/mg
- IC50 (CB1 receptor [2]): 83.2 µM
- effect on [3H]SR141716 binding (in words) (CB1 receptor [2]): only exhibited a slight reduction in [^3H]SR141716 binding
- remaining activity at 32 µM (CB1 receptor [2]): 73.2 ± 5.77%

SMILES: CC(C)(C)OC(=O)n1cccc1-c1cccc(NC(=O)Nc2ccc(Cl)cc2)c1 [Compound 15]
- IC50 (CB1 receptor [4]): 3.24 µM
- EC50 (CB1 receptor [1]): 14.8 µM
- effect on [3H]CP55,940 binding (in words) (CB1 receptor [1]; 1 nM [3H]CP55,940): significantly decreased the binding of the radioligand
- [3H]CP55,940 Curve-fit top ± S.E. (CB1 receptor [1]; 1 nM [3H]CP55,940): 15.5 ± 24.12
- IC50 (CB1 receptor [2]): 8.51 µM
- remaining activity at 32 µM (CB1 receptor [2]): 17.2 ± 4.12%
- IC50 (human CB1 receptor): 3.44 ± 0.451 µM

SMILES: O=C(Nc1ccc(Cl)cc1)Nc1cccc(-c2ccc[nH]2)c1 [Compound 13, 3‐(4‐Chlorophenyl)‐1‐[3‐(1H‐pyrrol‐2‐yl)phenyl]urea]
- EC50 (CB1 receptor [1]): 1.38 µM
- [3H]CP55,940 maximum binding level (CB1 receptor [1]; 1 nM [3H]CP55,940): 458%
- [3H]CP55,940 Curve-fit top ± S.E. (CB1 receptor [1]; 1 nM [3H]CP55,940): 458.3 ± 16.25
- fold increase of [3H]CP55,940 binding level compared to 1 (CB1 receptor [1]; relative to 1): more than 2 fold
- [3H]CP55,940 Bmax ± S.E. (CB1 receptor [5]): 5.87 ± 0.15 pmol/mg
- IC50 (CB1 receptor [2]): 14.1 µM
- remaining activity at 32 µM (CB1 receptor [2]): 26.6 ± 5.68%
- IC50 (human CB1 receptor): 0.165 to 0.169 µM
- fold reduction in potency compared to 1, CB1 calcium assay (human CB1 receptor): about 3 fold

SMILES: O=C(Nc1ccc(Cl)cc1)Nc1cccc(-c2ncc[nH]2)c1 [Compound 19, 3‐(4‐Chlorophenyl)‐1‐[3‐(1H‐imidazol‐2‐yl)phenyl]urea]
- EC50 (CB1 receptor [1]): 10.2 µM
- [3H]CP55,940 maximum binding level (CB1 receptor [1]; 1 nM [3H]CP55,940): 355%
- [3H]CP55,940 Curve-fit top ± S.E. (CB1 receptor [1]; 1 nM [3H]CP55,940): 355.7 ± 27.39
- IC50 (CB1 receptor [2]): 123 µM
- remaining activity at 32 µM (CB1 receptor [2]): 34.8 ± 8.94%
- fold reduction in potency compared to 1, CB1 calcium assay (human CB1 receptor): around 16 fold

SMILES: O=C(Nc1ccc(Cl)cc1)Nc1cccc(-c2cccs2)c1 [Compound 10, 3‐(4‐Chlorophenyl)‐1‐[3‐(thiophen‐2‐yl)phenyl]urea]
- EC50 (CB1 receptor [1]): 5.75 µM
- [3H]CP55,940 Curve-fit top ± S.E. (CB1 receptor [1]; 1 nM [3H]CP55,940): 199.8 ± 8.78
- IC50 (CB1 receptor [2]): 28.8 µM
- remaining activity at 32 µM (CB1 receptor [2]): 45.54 ± 0.15%

SMILES: O=C(Nc1ccc(Cl)cc1)Nc1cccc(-c2nccs2)c1 [Compound 18, 3‐(4‐Chlorophenyl)‐1‐[3‐(1,3‐thiazol‐2‐yl)phenyl]urea]
- EC50 (CB1 receptor [1]): 5.13 µM
- [3H]CP55,940 Curve-fit top ± S.E. (CB1 receptor [1]; 1 nM [3H]CP55,940): 134.2 ± 4.47
- IC50 (CB1 receptor [2]): 16.6 µM
- remaining activity at 32 µM (CB1 receptor [2]): 37.7 ± 0.76%

SMILES: O=C(Nc1ccc(Cl)cc1)Nc1cccc(-c2cccc(N3CCCC3)n2)c1 [Compound 1, 1-(4-Chlorophenyl)-3-{3-[6-(pyrrolidin-1-yl)pyridin-2-yl]phenyl}urea, reference compound]
- EC50 (CB1 receptor [1]): 2.04 µM
- [3H]CP55,940 maximum binding level (CB1 receptor [1]; 1 nM [3H]CP55,940): 256%
- Emax (CB1 receptor [1]; 1.5 h, read-out: [3H]CP55,940 Curve-fit top ± S.E.): 256 ± 5.59%
- [3H]CP55,940 Bmax ± S.E. (CB1 receptor [5]): 4.53 ± 0.29 pmol/mg
- IC50 (CB1 receptor [2]): 12.3 µM
- remaining activity at 32 µM (CB1 receptor [2]): 20.4 ± 3.05%
- food intake and body weight [6]: demonstrated efficacy in reducing food intake and body weight
- tetrahydrocannabinol-induced anti-nociception [7]: attenuated tetrahydrocannabinol-induced anti-nociception
- prime-induced reinstatement of extinguished cocaine-seeking behavior (rats): attenuated prime-induced reinstatement of extinguished cocaine-seeking behavior in rats

SMILES: O=C(Nc1ccc(Cl)cc1)Nc1cccc(-c2cncs2)c1 [Compound 17, 3‐(4‐Chlorophenyl)‐1‐[3‐(1,3‐thiazol‐5‐yl)phenyl]urea]
- EC50 (CB1 receptor [1]): 6.46 µM
- [3H]CP55,940 Curve-fit top ± S.E. (CB1 receptor [1]; 1 nM [3H]CP55,940): 181.2 ± 8.15
- [3H]CP55,940 Bmax ± S.E. (CB1 receptor [5]): 3.57 ± 0.25 pmol/mg
- IC50 (CB1 receptor [2]): 2.95 µM
- remaining activity at 32 µM (CB1 receptor [2]): 50.6 ± 2.04%

SMILES: Cn1cccc1-c1cccc(NC(=O)Nc2ccc(Cl)cc2)c1 [Compound 14, 3‐(4‐Chlorophenyl)‐1‐[3‐(1‐methyl‐1H‐pyrrol‐2‐yl)phenyl]urea]
- EC50 (CB1 receptor [1]): 5.62 µM
- [3H]CP55,940 Curve-fit top ± S.E. (CB1 receptor [1]; 1 nM [3H]CP55,940): 164.5 ± 8.61
- IC50 (CB1 receptor [2]): 17.8 µM
- remaining activity at 32 µM (CB1 receptor [2]): 41.4 ± 3.26%
- IC50 (human CB1 receptor): 0.165 to 0.169 µM
- fold reduction in potency compared to 1, CB1 calcium assay (human CB1 receptor): about 3 fold

SMILES: O=C(Nc1ccc(Cl)cc1)Nc1cccc(-c2ccoc2)c1 [Compound 8, 3‐(4‐Chlorophenyl)‐1‐[3‐(furan‐3‐yl)phenyl]urea]
- fold less potent than 1 in the GTP-γ-S assay (CB1 receptor [4]; relative to 1): ~ 4 fold
- EC50 (CB1 receptor [1]): 7.41 µM
- [3H]CP55,940 Curve-fit top ± S.E. (CB1 receptor [1]; 1 nM [3H]CP55,940): 174.1 ± 8.86
- [3H]CP55,940 Bmax ± S.E. (CB1 receptor [5]): 3.22 ± 0.19 pmol/mg
- IC50 (CB1 receptor [2]): 17.4 µM
- remaining activity at 32 µM (CB1 receptor [2]): 34.9 ± 2.43%
